# Experimental data from patent US10092648B2, “Selective glucagon-like-peptide-2 (GLP-2) analogues” (Zealand Pharma A/S, priority 2006, dated 2018).
# T1: hGLP-2 receptor (human, UniProt O95838 1-553)
# T1 sequence (looked up): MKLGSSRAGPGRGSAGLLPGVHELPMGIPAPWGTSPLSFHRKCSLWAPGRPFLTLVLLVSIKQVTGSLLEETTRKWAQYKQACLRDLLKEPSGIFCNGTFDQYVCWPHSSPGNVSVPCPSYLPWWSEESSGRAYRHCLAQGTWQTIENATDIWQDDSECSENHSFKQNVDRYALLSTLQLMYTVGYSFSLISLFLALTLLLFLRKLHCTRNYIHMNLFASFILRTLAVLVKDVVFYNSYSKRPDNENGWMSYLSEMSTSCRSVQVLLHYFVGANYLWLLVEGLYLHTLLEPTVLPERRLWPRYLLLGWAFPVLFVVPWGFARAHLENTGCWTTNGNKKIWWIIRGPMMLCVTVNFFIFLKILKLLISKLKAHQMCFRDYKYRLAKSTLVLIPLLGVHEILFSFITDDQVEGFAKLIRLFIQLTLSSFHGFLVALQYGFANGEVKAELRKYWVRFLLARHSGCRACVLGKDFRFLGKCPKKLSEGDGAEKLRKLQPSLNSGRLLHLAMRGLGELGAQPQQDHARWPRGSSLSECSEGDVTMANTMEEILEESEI
# Tests used:
# [1] = amino acid side-chain; defined by W. D. Stein 1967; cited from earlier work
# male C57BL mice [2] = test: In vivo stimulation of intestinal growth, 800 nmol/kg (Example 10); parameters: key to Small intestine-colon sensitivity index: (SI/Colon) of compound divided by (SI/Colon) of reference GLP-2; settings: 800 nmol/kg s.c. once daily for 3 days; for Colon: colon mass relative to BW, % vs. [Gly2]GLP-2; for SI (% vs. [Gly2]GLP-2: small intestine mass relative to BW, [Gly2]GLP-2 = 100%
# Source text: Individual groups (n=6-10) of mice were given 800 nmol/kg of each compound, s.c, once daily for three consecutive days. For comparison purposes other groups of animals were given either an equimolar dose of [[…]]GLP-2 (ZP1559) or vehicle (phosphate buffered saline, pH 7.4) in the same dosing regimen Twenty-four hours after the last dose of compound had been given the mice were sacrificed and the small intestine (from the pylorus to the cecum) and the colon (intestine distal to cecum) was emptied and weighed. To correct for slight difference in body weight (BW), the organ mass of the small intestine (SI) and colon were expressed relative to BW. The non-selective reference compound [[…]]GLP-2 has been reported to stimulate gastrointestinal growth in both esophagus, stomach, small intestine and colon and to evaluate differences in growth pattern induced by compounds, the small intestine-colon sensitivity index of compound X was calculated as: […]
# male C57BL mice [3] = test: In vivo stimulation of intestinal growth, 200 nmol/kg (Example 11); settings: for Sensitivity index Si/Colon: relative to 1559
# Procedure: The ability of further compounds to selectively stimulate small intestinal mass, relative to colon mass was determined in male C57BL mice. A similar protocol was used to that described above in Example 10 except that 200 nmol/kg of each compound was administered per day. Thus, individual groups (n=6-10) of mice were given 200 nmol/kg of each compound, s.c, once daily for three consecutive days. Other groups of animals were given either an equimolar dose of [[…]]GLP-2 (reference compound) or vehicle (phosphate buffered saline, pH 7.4; negative controls) in the same dosing regimen. Twenty-four hours after the last dose of compound the mice were sacrificed and the stomach, small intestine and the colon emptied and weighed.
# male C57BL mice [4] = test: In vivo stimulation of stomach growth, 200 nmol/kg (Example 12)
# Procedure: The effects of the test compounds according to the invention were determined based on the ability of the peptides to selectively increase stomach mass, relative to vehicle control. The ability of the present compounds (ZP2395, ZP2396, ZP2400, ZP2412, ZP2394 and ZP2401) to selectively stimulate stomach mass, relative to colon mass was determined in male C57BL mice. Individual groups (n=6-10) of mice were given 200 nmol/kg of each compound, s.c, once daily for three consecutive days. For comparison purposes other groups of animals were given either an equimolar dose of [[…]]GLP-2 or vehicle (phosphate buffered saline, pH 7.4) in the same dosing regimen. Twenty-four hours after the last dose of compound had been given the mice were sacrificed and the stomach and small intestine (from the pylorus to the ileocaecal junction) emptied and weighed. To correct for slight difference in body weight (BW), the organ mass of the stomach is presented relative to BW. […] To evaluate the differential growth pattern induced by ZP compounds, compared to [[…]]GLP-2, on the stomach, the stomach-colon sensitivity index of compound X was calculated as: (Stomach/Colon)x/Stomach/(Colon)[[…]]GLP-2% Compounds with a stomach/colon sensitivity greater than or equal to 1.05 were considered relatively selective for the stomach.
# hGLP-2 receptor = molecular target: T1, hGLP-2 receptor; test: cell-based or functional assay
# [5] = colon weight relative to body weight, relative to ZP1559
# [6] = small intestine weight relative to body weight, relative to ZP1559
# [7] = 200 nmol/kg s.c. once daily for 3 days
# [8] = 200 nmol/kg s.c. once daily for 3 days, relative to 1559
molecule,measurement,setting,value
N[C@@H](Cc1c[nH]cn1)C(=O)O [His],HBP for the individual amino acids,[1],1
N[C@@H](CO)C(=O)O [Ser],HBP for the individual amino acids,[1],2
NC(=O)C[C@H](N)C(=O)O [Asn],HBP for the individual amino acids,[1],3
N[C@@H](Cc1c[nH]c2ccccc12)C(=O)O [Trp],HBP for the individual amino acids,[1],1
N[C@@H](CC(=O)O)C(=O)O [Asp],HBP for the individual amino acids,[1],3
N[C@@H](Cc1ccccc1)C(=O)O [Phe],HBP for the individual amino acids,[1],0
N=C(N)NCCC[C@H](N)C(=O)O [Arg],HBP for the individual amino acids,[1],3
O=C(O)[C@@H]1CCCN1 [Pro],HBP for the individual amino acids,[1],0
N[C@@H](Cc1ccc(O)cc1)C(=O)O [Tyr],HBP for the individual amino acids,[1],2
CC(C)C[C@H](N)C(=O)O [Leu],HBP for the individual amino acids,[1],0
NCC(=O)O [Gly],HBP for the individual amino acids,[1],0
C[C@H](N)C(=O)O [Ala],HBP for the individual amino acids,[1],0
C[C@@H](O)[C@H](N)C(=O)O [Thr],HBP for the individual amino acids,[1],2
NCCCC[C@H](N)C(=O)O [Lys],HBP for the individual amino acids,[1],2
"H-[Gly2]hGLP-2-OH (H-HGDGSFSDEMNTILDNLAARDFINWLIQTKITD-OH) [[Gly2]GLP-2, GLP-2 with alanine in position 2 replaced with glycine, reference compound]",Small intestine-colon sensitivity index,male C57BL mice [2]; (SI/Colon)x/(SI/Colon)[Gly2]GLP-2,1.00 ± 0.02
same,Colon,male C57BL mice [2],100 ± 2%
same,SI (% vs. [Gly2]GLP-2,male C57BL mice [2],100 ± 1%
CC(C)[C@H](N)C(=O)O [Val],HBP for the individual amino acids,[1],0
N[C@@H](CCC(=O)O)C(=O)O [Glu],HBP for the individual amino acids,[1],3
N[C@@H](CS)C(=O)O [Cys],HBP for the individual amino acids,[1],0
H-HGEGSFSSELSTILDALAARDFIAWLIATKITDK-OH [ZP2242],"Colon-BW, compared to 1559 in %",male C57BL mice [2],106.6%
same,Preferential stimulation of epithelial growth in the small intestine (summary),male C57BL mice [2],preferentially stimulating epithelial growth in the small intestine
same,"SI-BW, compared to 1559 in %",male C57BL mice [2],111.7%
same,"Sto-BW, compared to 1559 in %",male C57BL mice [2],99.6%
same,Sensitivity index Si/Colon,male C57BL mice [2]; relative to 1559,1.05
same,Sensitivity index Stomach/Co,male C57BL mice [2]; relative to 1559,0.93
same,Colon,male C57BL mice [2],107 ± 3%
same,SI (% vs. [Gly2]GLP-2,male C57BL mice [2],111 ± 2%
same,"Colon-BW, compared to 1559 in %",male C57BL mice [3]; [5],106.6%
same,Sensitivity index Si/Co,male C57BL mice [3]; ratio SI-BW / Colon-BW,1.05
same,"SI-BW, compared to 1559 in %",male C57BL mice [3]; [6],111.7%
same,Sensitivity index Stomach/Co,male C57BL mice [4]; ratio Stomach-BW / Colon-BW,0.93
same,"Stomach-BW, compared to 1559 in %","male C57BL mice [4]; stomach weight relative to body weight, relative to ZP1559",99.6%
NC(=O)CC[C@H](N)C(=O)O [Gln],HBP for the individual amino acids,[1],3
H-HGEGSFSDELSTILESLAASDFISWLISTKITDKKKKKK-NH2 [ZP2380],"Colon-BW, compared to 1559 in %",male C57BL mice [3]; [7],102%
same,Preferential stimulation of epithelial growth in the small intestine (summary),male C57BL mice [3]; [7],preferentially stimulating epithelial growth in the small intestine
same,"SI-BW, compared to 1559 in %",male C57BL mice [3]; [7],108%
same,Selectivity for small intestinal mass relative to colon mass (FIG. 6),male C57BL mice [3]; [7],"selectively increase small intestinal mass, relative to colon mass"
same,Sensitivity index Si/Colon,male C57BL mice [3]; [7],1.06
same,"Colon-BW, compared to 1559 in %",male C57BL mice [3]; [5],102%
same,"SI-BW, compared to 1559 in %",male C57BL mice [3]; [6],108%
same,"Sto-BW, compared to 1559 in %",male C57BL mice [4]; [7],98%
same,Sensitivity index Stomach/Co,male C57BL mice [4]; [8],0.96
same,Sensitivity index Stomach/Co,male C57BL mice [4]; ratio Stomach-BW / Colon-BW,0.96
H-HGEGSFSDELKTILEKLAAKDFIKWLIKTKITDKKKKKK-NH2 [ZP2395],"Colon-BW, compared to 1559 in %",male C57BL mice [3]; [7],97%
same,"SI-BW, compared to 1559 in %",male C57BL mice [3]; [7],98%
same,Sensitivity index Si/Colon,male C57BL mice [3]; [7],1.01
same,"Colon-BW, compared to 1559 in %",male C57BL mice [3]; [5],97%
same,"SI-BW, compared to 1559 in %",male C57BL mice [3]; [6],98%
same,Preferential stimulation of epithelial growth in the stomach (summary),male C57BL mice [4]; [7],preferentially stimulating epithelial growth in the stomach
same,Selectivity for stomach mass relative to colon mass (FIG. 7),male C57BL mice [4]; [7],"selectively increase stomach mass, relative to colon mass"
same,"Sto-BW, compared to 1559 in %",male C57BL mice [4]; [7],113%
same,Sensitivity index Stomach/Co,male C57BL mice [4]; [8],1.16
same,Sensitivity index Stomach/Co,male C57BL mice [4]; ratio Stomach-BW / Colon-BW,1.16
H-HGEGSFSDELATILEALAAADFIAWLISTKITDKKKKKK-NH2 [ZP2384],"Colon-BW, compared to 1559 in %",male C57BL mice [3]; [7],118%
same,Preferential stimulation of epithelial growth in the small intestine (summary),male C57BL mice [3]; [7],preferentially stimulating epithelial growth in the small intestine
same,"SI-BW, compared to 1559 in %",male C57BL mice [3]; [7],128%
same,Selectivity for small intestinal mass relative to colon mass (FIG. 6),male C57BL mice [3]; [7],"selectively increase small intestinal mass, relative to colon mass"
same,Sensitivity index Si/Colon,male C57BL mice [3]; [7],1.08
same,"Colon-BW, compared to 1559 in %",male C57BL mice [3]; [5],118%
same,"SI-BW, compared to 1559 in %",male C57BL mice [3]; [6],128%
same,"Sto-BW, compared to 1559 in %",male C57BL mice [4]; [7],100%
same,Sensitivity index Stomach/Co,male C57BL mice [4]; [8],0.85
same,Sensitivity index Stomach/Co,male C57BL mice [4]; ratio Stomach-BW / Colon-BW,0.85
CSCC[C@H](N)C(=O)O [Met],HBP for the individual amino acids,[1],0
H-HGEGSFSDELSTILEALAAADFIAWLIATKITD-NH2 [ZP2420],"Colon-BW, compared to 1559 in %",male C57BL mice [3]; [7],101%
same,Preferential stimulation of epithelial growth in the small intestine (summary),male C57BL mice [3]; [7],preferentially stimulating epithelial growth in the small intestine
same,"SI-BW, compared to 1559 in %",male C57BL mice [3]; [7],112%
same,Selectivity for small intestinal mass relative to colon mass (FIG. 6),male C57BL mice [3]; [7],"selectively increase small intestinal mass, relative to colon mass"
same,Sensitivity index Si/Colon,male C57BL mice [3]; [7],1.11
same,"Colon-BW, compared to 1559 in %",male C57BL mice [3]; [5],101%
same,"SI-BW, compared to 1559 in %",male C57BL mice [3]; [6],112%
same,"Sto-BW, compared to 1559 in %",male C57BL mice [4]; [7],90%
same,Sensitivity index Stomach/Co,male C57BL mice [4]; [8],0.89
same,Sensitivity index Stomach/Co,male C57BL mice [4]; ratio Stomach-BW / Colon-BW,0.89
H-HGEGSFSDELSTILESLAAADFIAWLIATKITD-NH2 [ZP2267],"pEC50 (CRE-luciferase reporter, BHK-21 cells transiently transfected with hGLP-2 receptor)",hGLP-2 receptor,10.9
H-HGEGSFSDELSTILESLAASDFISWLISTKITD-NH2 [ZP2263],"pEC50 (CRE-luciferase reporter, BHK-21 cells transiently transfected with hGLP-2 receptor)",hGLP-2 receptor,10.8
H-HGEGSFSDELETILEELAAEDFIEWLIETKITD-NH2 [ZP2266],"pEC50 (CRE-luciferase reporter, BHK-21 cells transiently transfected with hGLP-2 receptor)",hGLP-2 receptor,9.25
H-HGEGSFSDELATILEALAAADFIAWLIATKITD-NH2 [ZP2264],"pEC50 (CRE-luciferase reporter, BHK-21 cells transiently transfected with hGLP-2 receptor)",hGLP-2 receptor,11.5
